Results reported in patent US12343326B2, “Psychoactive medicines and their use for treating psychiatric and neurological conditions and disorders” (Transcend Therapeutics, Inc., priority 2021, dated 2025).
“Also recorded” adds a separate entry of the source. Read-outs that look alike come from different tables or passages of the source.

How the values were obtained:
[1] = test system: Male Sprague Dawley rats; experiment: Forced Swim Test (FST); assay type: in vivo, rat
Description: The Forced Swim Test (FST) is a classic, and the most used preclinical behavioral assay to screen compounds with antidepressant-like activity and has high predictive and face validity (Porsolt et al. (1977) Nature 266:730; Borsini and Meli (1988) Psychopharmacology 94:147). The premise of the FST is that when rats are placed into a cylinder filled with water, they will initially try to escape, but over time will become immobile. This increased immobility reflects behavioral despair, modeling a depressive-like state.
Forced Swim Test (FST): In the FST trial, rats were placed in a circular plexiglass container filled with water, with no means of escape. Water temperature was maintained at 22-25° C. and changed for every animal. After an acclimation period, rats were timed for inactivity (failure to struggle), activity, swim time and climbing time. Day 1 consisted of a 15 min acclimation trial, and Day 2 (24 h later) consisted of the 5 min test. A time sampling procedure was employed where animals were observed every 5 sec and scored for immobility, swimming, or climbing. Fluoxetine (10 mg/kg, IP, Sigma Aldrich) or 0.9% sterile saline vehicle (vehicle 3× group) were administered 23.5, 5, and 1 h before testing in the FST. […] The experimenter was blinded to treatment.
Forced Swim Test: In the FST trial, rats were placed in a circular plexiglass container filled with water, with no means of escape. Water temperature was maintained at 22-25° C. and changed for every animal. After an acclimation period, rats were timed for inactivity (failure to struggle), activity, swim time and climbing time. Day 1 consisted of a 15 min acclimation trial, and Day 2 (24 h later) consisted of the 5 min test. A time sampling procedure was employed where animals were observed every 5 sec and scored for immobility, swimming, or climbing. Fluoxetine (10 mg/kg, IP, Sigma Aldrich) or 0.9% sterile saline vehicle (vehicle 3× group) were administered 23.5, 5, and 1 h before testing in the FST. 2C-B (2.5, 10, or 20 mg/kg, IP, Cayman Chemical) or 0.9% saline vehicle (vehicle 1× group) were administered 30 min prior to FST testing. The experimenter was blinded to treatment.
Drug Treatment: Fluoxetine (10 mg/kg, IP, Sigma Aldrich) or 0.9% sterile saline vehicle were administered 23.5, 5, and 1 h before testing in the FST. […] Control animals received fluoxetine alone, methylone alone, or saline vehicle.
Forced Swim Test: In the FST trial, rats were placed in a circular plexiglass container filled with water, with no means of escape. Water temperature was maintained at 22-25° C. and changed for every animal. After an acclimation period, rats were timed for inactivity (failure to struggle), activity, swim time and climbing time. The experimenter and scorer were blind to treatment group. Day 1 consisted of a 15 min acclimation trial, and Day 2 (24 h later) consisted of the 5 min test. A time sampling procedure was employed where animals were observed every 5 sec and scored for immobility, swimming, or climbing.
Control animals received saline vehicle. The dosing schedule and experimental design are found in FIG. 12A.
The FST was performed and scored by an experimenter blind to treatment group according to standard protocols and based on a “modified FST” procedure (Slattery and Cryan (2012) Nat Protoc, 7:1009). Briefly, rats were placed in a circular plexiglass container (29.2 cm diameter, 49.5 cm height) filled with water to a depth of 30 cm so rats could not support themselves by touching the bottom of the tank. Water was maintained at 22-25° C. and was changed for every animal. Day 1 (Training) consisted of a 15 min acclimation trial, and Day 2 (Testing, 24 h later) consisted of the 5 min test. […]

[2] = test system: mice; experiment: Mouse fear extinction paradigm (PTSD model); assay type: in vivo; details: MBDB 5 mg/kg IP; day 2
Description: Effective PTSD treatments facilitate the disassociation between a traumatic memory and the patient's fear response, making cues for the traumatic memory evoke less of a fear response. This is modeled in the mouse fear extinction paradigm (see FIG. 9A) which takes place over 3 days. On day 1 (fear conditioning), mice are trained to acquire a “traumatic memory,” namely associating the conditioned stimulus (CS, tone) to the unconditioned stimulus (US, foot shock). On day 2 (extinction training), they are trained to forget the traumatic memory association by presenting the CS 6 times (with no US) in a novel environment. On day 3 (extinction recall), the mice are “asked” if that tone (CS) still elicits a fearful response, as measured by the time spent freezing when the tone is presented. Less time freezing means better extinction recall. Drugs that improve extinction recall reduce freezing time on day 3, and, therefore, show potential as a PTSD treatment.

[3] = test system: serotonergic terminals in the cortex and hippocampus; details: 25 mg/kg IP every 12 hours for 4 days; 2 weeks post-treatment; cited from earlier work
[4] = test system: experienced drug users; details: cited from earlier work
[5] = test system: rats with reserpine-induced pain sensitivity; experiment: Reserpine-induced fibromyalgia model, von Frey test; assay type: in vivo, rat; details: 2C-B 10 and 20 mg/kg; duloxetine positive control; 60-min post-injection
Method: Reserpine (1 mg/kg/s.c.) is administered for 3 days to mimic chronic widespread pain and complex symptoms.
In this Example, male Sprague Dawley rats are tested in a behavioral model of FMA based on the protocol from Nakagura et al. (2009) Pain 146:26. This model uses three daily doses of reserpine (1 mg/kg, SC) or 0.5% acetic acid vehicle to reduce pain thresholds (i.e., increase pain perception) in the Von Frey Test (vFT, procedure outlined below).
Von Frey Test (vFT) procedure: Increasing pain thresholds in this test are consistent with a reduction in pain perception. Prior to the start of dosing, rats are tested for their baseline mechanical pain threshold. For von Frey measurements, animals are placed into wire bottom cubicles with opaque Plexiglas walls, allowing access to the underside of their paws. Animals are habituated to this environment for at least 30 minutes before the start of the von Frey filament application. Static allodynia is measured using Semmes-Weinstein von Frey filaments (Stoelting, Wood Dale, IL). Mechanical allodynia is tested by touching the plantar surface of the animals' left and right hind paws with von Frey filaments which deliver a calibrated amount of force. Each von Frey filament is presented perpendicularly to the plantar surface for approximately 6 seconds of constant application in either ascending or descending strength in a modified up-and-down method (Chaplan et al. (1994) J Neurosci. Meth. 53:55). Stimulation is presented at intervals of several seconds, allowing for apparent resolution of any behavioral responses to previous stimuli. A positive response is noted if the paw is sharply withdrawn. Flinching immediately upon removal of the hair is also considered a positive response. […]
VonFrey measurements: Animals were placed into wire bottom cubicles with opaque Plexiglas walls, allowing access to the underside of their paws. […] Static allodynia was measured using Semmes-Weinstein von Frey filaments (Stoelting, Wood Dale, IL). […] The average hindpaw thresholds were determined 60-min post-injection. […]

[6] = test system: Male C57Bl/6 mice; experiment: Cisplatin chemotherapy-induced peripheral neuropathy (CIPN) model, von Frey test; assay type: in vivo, mouse
Method: Cisplatin, a platinum-based chemotherapy agent has been used to reduce pain thresholds in a model of CIPN. Effects of acute (single higher dose) or sub-chronic (7 days repeated lower dose) 2C-B on pain thresholds were investigated in cisplatin-treated animals compared with vehicle or cisplatin-treated controls.
Methods: Male C57Bl/6 mice aged 12-16 weeks were used. Cisplatin (2.5 mg/kg) or vehicle was administered on days 1-5 and 11-15.
Vehicle, sub-chronic 2C-B (5 mg/kg once daily days 17-23) or acute 2C-B (20 mg/kg once on day 17) was then administered IP (N=16-18/group). VonFrey testing took place on day 17 (30 min post-dose) and days 21 and 24 (pre-dose) to monitor the effects of 2C-B in cisplatin treated animals, compared with animals receiving cisplatin+vehicle or vehicle+vehicle.
For von Frey measurements, animals were placed into wire bottom cubicles with opaque Plexiglas walls, allowing access to the underside of their paws. Animals were habituated to this environment for at least 30 minutes before the start of the von Frey filament application. Static allodynia was measured using Semmes-Weinstein von Frey filaments (Stoelting, Wood Dale, IL). Mechanical allodynia was tested by touching the plantar surface of the animals' right and left hind paws with von Frey filaments which deliver a calibrated amount of force (0.07, 0.16, 0.4, 0.6. 1.0, 2.0, 4.0, 6.0 g). […]

[7] = test system: rats (Sprague Dawley; Flinders Sensitive Line); details: cited from earlier work

Structure (SMILES): CCC(Cc1ccc2c(c1)OCO2)NC (racemic) [MBDB, N-methyl-1-(1,3-benzodioxol-5-yl)-2-aminobutane]
- immobility (FST) ([1]; MBDB 5-30 mg/kg IP, 30 min before testing): significantly reduced immobility
- extinction acquisition (freezing, first trial of extinction training) [2]: improved extinction acquisition; also recorded: significantly reduced
- locomotor activity [2]: small, but significant increase in locomotor activity
- serotonergic terminals in the cortex and hippocampus destroyed [3]: 55-60%
- serious adverse effects ([4]; self-administered under supervision, dose 100 to 300 mg): no serious adverse effects

Structure (SMILES): COc1cc(CCN)c(OC)cc1Br [2C-B, 4-Bromo-2,5-dimethoxyphenethylamine]
- climbing (FST) ([1]; 2C-B high-dose group only): significantly decreased
- swimming (FST) ([1]; single dose of 2C-B 30 minutes before testing): significant increase in swimming
- animals with complete (maximal) reversal of reserpine-induced pain sensitivity [5]: 100%
- effect of repeated doses in CIPN model ([6]; repeated doses of 5 mg/kg, once daily days 17-23): sustained beneficial effect
- pain thresholds (von Frey) in cisplatin-treated animals ([6]; within 30 min of a single dose, 5 or 20 mg/kg IP, day 17): significantly increased
- serious adverse effects ([4]; self-administered, dose 10 to 20 mg): no serious adverse effects

Structure (SMILES): CCN(CC)C(=O)[C@@H]1C=C2c3cccc4[nH]cc(c34)C[C@H]2N(C)C1 [LSD, lysergic acid-N,N-diethylamide]
- reduction in immobility (FST) ([7]; Hibicke et al. (2020)): 38%

Structure (SMILES): CNCC[C@H](Oc1cccc2ccccc12)c1cccs1 [duloxetine, reference compound]
- animals with complete (maximal) reversal of reserpine-induced pain sensitivity [5]: 44%

Structure (SMILES): CNCCC(Oc1ccc(C(F)(F)F)cc1)c1ccccc1 (stereo not drawn) [fluoxetine, reference compound]
- swimming behavior (FST) ([1]; Example 8): significantly increased swimming behavior

Structure (SMILES): CNC1(c2ccccc2Cl)CCCCC1=O (stereo not drawn) [ketamine]
- reduction in immobility (FST) ([7]; Hibicke et al. (2020)): 30%
- reduction in immobility (FST) ([7]; Tizabi et al. (2012)): 60%
- reduction in immobility (FST) ([7]; Yang et al. (2013)): 25-55%

Structure (SMILES): CN(C)CCc1c[nH]c2cccc(OP(=O)(O)O)c12 [psilocybin]
- reduction in immobility (FST) ([7]; Hibicke et al. (2020)): 67%
